Test results: ChEMBL document CHEMBL5252612, “A novel selective estrogen receptor degrader induces cell cycle arrest in breast cancer via ERα degradation and the autophagy-lysosome pathway” (Bioorg Med Chem, 2023)
Activity calls are given as the source filed them. The rule behind the calls is not given here.

Legend:
MCF7 [1] = experiment: Anticancer activity against ER-alpha positive human MCF7 cells assessed as reduction in cell viability measured after 48 hrs by CCK8 assay; format: functional, cell-based
T47D [2] = experiment: Induction of cell cycle arrest in human T47D cells assessed as proportion of cells at G1 phase at 1 uM incubated for 24 hrs by flow cytometry (reference value: 66.6%); format: functional
T47D [3] = experiment: Induction of cell cycle arrest in human T47D cells assessed as proportion of cells at S phase at 5 uM incubated for 24 hrs by flow cytometry (reference value: 15.3%); format: functional
MCF7 [4] = experiment: Induction of cell cycle arrest in human MCF7 cells assessed as proportion of cells at S phase at 5 uM incubated for 24 hrs by flow cytometry (reference value: 27.6%); format: functional
T47D [5] = experiment: Induction of apoptosis and necrosis in human T47D cells assessed as live cells at 20 uM incubated for 48 hrs by AnnexinV-FITC/PI staining based flow cytometry (reference value: 96.26%); format: functional
MCF7 [6] = experiment: Induction of apoptosis and necrosis in human MCF7 cells assessed as live cells at 20 uM incubated for 48 hrs by AnnexinV-FITC/PI staining based flow cytometry (reference value: 92.97%); format: functional
T47D [7] = experiment: Induction of apoptosis and necrosis in human T47D cells incubated for 48 hrs by AnnexinV-FITC/PI staining based flow cytometry (reference value: 3.73%); format: functional
MCF7 [8] = experiment: Induction of apoptosis in human MCF7 cells at 10 uM incubated for 48 hrs by TUNEL assay; format: functional, cell-based
[9] = target: T1, Estrogen receptor (Homo sapiens) (UniProt P03372); experiment: Induction of ER-alpha degradation in human T47D cells assessed as reduction in ER-alpha stability at 10 uM incubated for 3 to 9 hrs in presence of protein synthesis inhibitor, CHX by CHX chase assay based western blot analysis; format: cell-based; conditions: time 3-9 hrs
T1 sequence (whole entry): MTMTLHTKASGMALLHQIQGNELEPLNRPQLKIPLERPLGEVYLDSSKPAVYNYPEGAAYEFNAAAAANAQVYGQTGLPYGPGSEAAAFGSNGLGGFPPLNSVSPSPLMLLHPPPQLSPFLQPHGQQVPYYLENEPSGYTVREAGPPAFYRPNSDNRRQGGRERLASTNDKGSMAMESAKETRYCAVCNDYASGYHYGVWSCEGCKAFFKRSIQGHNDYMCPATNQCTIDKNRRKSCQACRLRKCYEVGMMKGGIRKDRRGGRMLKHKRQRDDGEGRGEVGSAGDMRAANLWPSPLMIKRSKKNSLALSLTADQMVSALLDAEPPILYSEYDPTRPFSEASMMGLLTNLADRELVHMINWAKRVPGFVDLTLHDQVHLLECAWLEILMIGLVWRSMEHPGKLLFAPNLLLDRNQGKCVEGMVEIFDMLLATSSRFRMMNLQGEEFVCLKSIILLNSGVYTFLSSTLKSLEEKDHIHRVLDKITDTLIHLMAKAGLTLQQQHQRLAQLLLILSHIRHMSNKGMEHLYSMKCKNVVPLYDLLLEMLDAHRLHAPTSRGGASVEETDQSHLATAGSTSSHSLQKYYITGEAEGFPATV

[10] = target: T1, Estrogen receptor (Homo sapiens); experiment: Induction of ER-alpha degradation in human T47D cells assessed as decrease in ER-alpha protein expression in presence of proteasome inhibitor, MG132 by western blot analysis; format: cell-based
T47D [11] = experiment: Downregulation of ER-alpha mRNA expression in human T47D cells by RT-qPCR analysis; format: functional, cell-based
T47D [12] = experiment: Induction of autophagy in human T47D cells assessed as increase in LC3 protein expression at 5 to 10 uM incubated for 24 hrs in presence of chloroquine by western blot analysis; format: functional, cell-based; conditions: dose 5-10 µM
T47D [13] = experiment: Induction of autophagic flux in human T47D cells transfected with mCherry-EGFP-LC3 assessed as increase in red fluorescence at 1 to 10 uM incubated for 24 hrs by confocal microscopic analysis; format: functional, cell-based; conditions: dose 1-10 µM
T47D [14] = experiment: Induction of autophagy in human T47D cells assessed as increase in number of lysosomes at 1 to 10 uM by LysoTracker dye based confocal microscopy; format: functional, cell-based; conditions: dose 1-10 µM
T47D [15] = experiment: Anticancer activity against ER-alpha positive human T47D cells assessed as reduction in cell viability at 10 uM measured after 48 hrs by CCK8 assay; format: functional, cell-based
T47D [16] = experiment: Induction of cell cycle arrest in human T47D cells assessed as proportion of cells at S phase at 10 uM incubated for 24 hrs by flow cytometry (reference value: 27.7%); format: functional
T47D [17] = experiment: Induction of cell cycle arrest in human T47D cells assessed as proportion of cells at G2 phase at 10 uM incubated for 24 hrs by flow cytometry (reference value: 17%); format: functional
T47D [18] = experiment: Induction of cell cycle arrest in human T47D cells transfected with empty vector assessed as proportion of cells at G1 phase at 10 uM incubated for 24 hrs by flow cytometry (reference value: 17.1%); format: functional
T47D [19] = experiment: Induction of cell cycle arrest in human T47D cells overexpressing MYC assessed as proportion of cells at G1 phase at 10 uM incubated for 24 hrs by flow cytometry (reference value: 22.1%); format: functional
T47D [20] = experiment: Induction of cell cycle arrest in human T47D cells overexpressing MYC assessed as proportion of cells at G2 phase at 10 uM incubated for 24 hrs by flow cytometry (reference value: 48.5%); format: functional
LCC2 [21] = experiment: Anticancer activity against ER-alpha positive human LCC2 cells assessed as reduction in cell viability at 20 uM measured after 48 hrs by CCK8 assay; format: functional, cell-based
[22] = Anticancer activity against ER-alpha positive human LCC2 cells assessed as reduction in cell viability measured after 48 hrs by CCK8 assay; format: functional, cell-based; conditions: Homo sapiens, LCC2, 48 h; read-out: IC50
[23] = target: T1, Estrogen receptor (Homo sapiens); experiment: Induction of ER-alpha degradation in tamoxifen-resistant human LCC2 cells assessed as decrease in ER-alpha protein expression at 10 uM by western blot analysis; format: cell-based
LCC2 [24] = experiment: Inhibition of colony formation in tamoxifen-resistant human LCC2 cells at 1 uM incubated for 14 days by crystal violet staining based analysis; format: functional, cell-based; conditions: time 14.0 day
[25] = Induction of cell cycle arrest in tamoxifen-resistant human LCC2 cells assessed as proportion of cells at G2 phase at 1 uM by flow cytometry (reference value: 23.7%); format: functional
[26] = Induction of cell cycle arrest in tamoxifen-resistant human LCC2 cells assessed as proportion of cells at G1 phase at 5 uM by flow cytometry (reference value: 47.4%); format: functional
[27] = Induction of cell cycle arrest in tamoxifen-resistant human LCC2 cells assessed as proportion of cells at S phase at 5 uM by flow cytometry (reference value: 28.4%); format: functional
[28] = Induction of cell cycle arrest in tamoxifen-resistant human LCC2 cells assessed as proportion of cells at S phase at 10 uM by flow cytometry (reference value: 28.4%); format: functional
[29] = target: T1, Estrogen receptor (Homo sapiens); experiment: Induction of ER-alpha degradation in human T47D cells assessed as decrease in ER-alpha protein expression in presence of autophagy inhibitor, 3-MA of by western blot analysis; format: cell-based

COc1ccc(N(CC(F)(F)F)S(=O)(=O)C2CC3OC2C(c2ccc(OCCN4CCCC4)cc2)=C3c2ccc(O)cc2)cc1 (stereo not given)
Activity (MCF7 [1]): Dose-Dependent Effect | IC50 (MCF7 [1]; MCF7, 48 h): 16.4 µM | Activity (T47D [2]): 71.1% | Activity (T47D [3]): 9.6% | Activity (MCF7 [4]): 15% | Activity (T47D [5]): 78.57% | Activity (MCF7 [6]): 53.55% | Activity (T47D [7]): 21.43% | Activity (MCF7 [8]): Active | Activity [9]: Active | Activity [10]: inactive | inhibition (T47D [11]): Active | Activity (T47D [12]): Active | Activity (T47D [13]): Active | Activity (T47D [14]): Active | Activity (T47D [15]): Active | Activity (T47D [16]): 10.2% | Activity (T47D [17]): 16.9% | Activity (T47D [18]): 36% | Activity (T47D [19]): 20.6% | Activity (T47D [20]): 52.5% | Activity (LCC2 [21]): Active | IC50 [22]: 10.5 µM | Activity [23]: Active | inhibition (LCC2 [24]): Active | Activity [25]: 16.6% | Activity [26]: 71.9% | Activity [27]: 13% | Activity [28]: 13.4% | Activity [29]: Active
